In PMC8691750, “Euphorbia Factor L2 ameliorates the Progression of K/BxN Serum-Induced Arthritis by Blocking TLR7 Mediated IRAK4/IKKβ/IRF5 and NF-kB Signaling Pathways” (Frontiers in Pharmacology, 2021):
Where “and” joins values, the source holds several entries; their conditions need not be identical. Identical values can stand only once.

Test system: TLR signalling pathway genes
Assay: Toll-like Receptor Pathway PCR array of ankles
Assay type: in vivo, C57BL/6 mice
Settings: for S40/SIA (fold change) / log2(fold change) S40/SIA: S40 group vs SIA group
Experimental: Total RNA was isolated from the right ankles using the TRIzol Reagent (Invitrogen) and purified with RNeasy Mini Kit and RNase-Free DNase Set (Qiagen). RNA quality was determined using a spectrophotometer and was reversely transcribed using Wcgene® mRNA cDNA kit. The complementary DNA was used on the Toll-like Receptor Pathway PCR Array plate (Wcgene® biotech, China).

C=C1C(OC(=O)c2ccccc2)CC2C(C=C(C)C(=O)C3(OC(C)=O)CC(C)C(OC(=O)c4ccccc4)C3C1OC(C)=O)C2(C)C (stereo not shown) [EFL2, Euphorbia factor L2]
fold-GAPDH, ACTB (ACTB mRNA relative to GAPDH (内参-GAPDH), individual mice of EFL2 group (S401, S402, S404, S405 = EFL2-1 to -4)): 1.058 and 1.072 and 0.8044
fold-GAPDH, B2M (B2M mRNA relative to GAPDH, individual mice of EFL2 group (S401, S402, S404, S405)): 0.312 and 0.4388 and 0.3402 and 0.1942
fold-GAPDH, Becn1 (Becn1 mRNA relative to GAPDH, individual mice of EFL2 group (S401, S402, S404, S405)): 0.001891 and 0.007192 and 0.004096
S40/SIA (fold change) (Becn1 mRNA): 0.2727
log2(fold change) S40/SIA (Becn1 mRNA): -1.875
fold-GAPDH, Btk (Btk mRNA relative to GAPDH, individual mice of EFL2 group (S401, S402, S404, S405)): 0.002403 and 0.001831 and 0.004678 and 0.001063
S40/SIA (fold change) (Btk mRNA): 0.3155
log2(fold change) S40/SIA (Btk mRNA): -1.664
fold-GAPDH, Casp8 (Casp8 mRNA relative to GAPDH, individual mice of EFL2 group (S401, S402, S404, S405)): 0.01634 and 0.01358 and 0.009475
S40/SIA (fold change) (Casp8 mRNA): 0.2393
log2(fold change) S40/SIA (Casp8 mRNA): -2.063
fold-GAPDH, Ccl2 (Ccl2 mRNA relative to GAPDH, individual mice of EFL2 group (S401, S402, S404, S405)): 0.01529 and 0.00629 and 0.0002036
S40/SIA (fold change) (Ccl2 mRNA): 0.0326
log2(fold change) S40/SIA (Ccl2 mRNA): -4.939
fold-GAPDH, Ccl11 (Ccl11 mRNA relative to GAPDH, individual mice of EFL2 group (S401, S402, S404, S405)): 0.01036 and 0.008836 and 0.01327 and 0.005579
S40/SIA (fold change) (Ccl11 mRNA): 1.864
log2(fold change) S40/SIA (Ccl11 mRNA): 0.8985
fold-GAPDH, Ccl20 (Ccl20 mRNA relative to GAPDH, individual mice of EFL2 group (S401, S402, S404, S405)): 3.719e-5 and 0.0001299
fold-GAPDH, Cd14 (Cd14 mRNA relative to GAPDH, individual mice of EFL2 group (S401, S402, S404, S405)): 0.005751 and 0.00806 and 0.003038 and 0.001749
fold-GAPDH, Cd80 (Cd80 mRNA relative to GAPDH, individual mice of EFL2 group (S401, S402, S404, S405)): 0.002341 and 0.005041 and 0.0008698
fold-GAPDH, Cd86 (Cd86 mRNA relative to GAPDH, individual mice of EFL2 group (S401, S402, S404, S405)): 0.0007215 and 0.0005777 and 0.0007714 and 0.0003428
S40/SIA (fold change) (Cd86 mRNA): 0.1925
log2(fold change) S40/SIA (Cd86 mRNA): -2.3771
fold-GAPDH, Chuk (Chuk mRNA relative to GAPDH, individual mice of EFL2 group (S401, S402, S404, S405)): 0.008767 and 0.01087 and 0.008829
S40/SIA (fold change) (Chuk mRNA): 0.3313
log2(fold change) S40/SIA (Chuk mRNA): -1.594
fold-GAPDH, Clec4e (Clec4e mRNA relative to GAPDH, individual mice of EFL2 group (S401, S402, S404, S405)): 0.0002637 and 0.002249 and 0.0004993 and 4.1493e-5
S40/SIA (fold change) (Clec4e mRNA): 0.0859
log2(fold change) S40/SIA (Clec4e mRNA): -3.541
fold-GAPDH, Cxcl10 (Cxcl10 mRNA relative to GAPDH, individual mice of EFL2 group (S401, S402, S404, S405)): 2.1064e-5
S40/SIA (fold change) (Cxcl10 mRNA): 0.002337
log2(fold change) S40/SIA (Cxcl10 mRNA): -8.741
fold-GAPDH, Eif2ak2 (Eif2ak2 mRNA relative to GAPDH, individual mice of EFL2 group (S401, S402, S404, S405)): 0.004437 and 0.00565 and 0.003196
fold-GAPDH, Elk1 (Elk1 mRNA relative to GAPDH, individual mice of EFL2 group (S401, S402, S404, S405)): 0.006009 and 0.005652 and 0.006734 and 0.002589
S40/SIA (fold change) (Elk1 mRNA): 0.3565
log2(fold change) S40/SIA (Elk1 mRNA): -1.488
fold-GAPDH, Fadd (Fadd mRNA relative to GAPDH, individual mice of EFL2 group (S401, S402, S404, S405)): 0.001977 and 0.0009207 and 0.00158 and 0.0009332
S40/SIA (fold change) (Fadd mRNA): 0.1995
log2(fold change) S40/SIA (Fadd mRNA): -2.325
fold-GAPDH, Fos (Fos mRNA relative to GAPDH, individual mice of EFL2 group (S401, S402, S404, S405)): 0.02349 and 0.0137 and 0.0143 and 0.009915
fold-GAPDH, HPRT1 (HPRT1 mRNA relative to GAPDH, individual mice of EFL2 group (S401, S402, S404, S405)): 0.01241 and 0.008273 and 0.01631
fold-GAPDH, Hmgb1 (Hmgb1 mRNA relative to GAPDH, individual mice of EFL2 group (S401, S402, S404, S405)): 0.3089 and 0.3274 and 0.2681 and 0.1726
fold-GAPDH, Hras1 (Hras1 mRNA relative to GAPDH, individual mice of EFL2 group (S401, S402, S404, S405)): 0.02419 and 0.02746 and 0.02268 and 0.01475
S40/SIA (fold change) (Hras1 mRNA): 0.4915
log2(fold change) S40/SIA (Hras1 mRNA): -1.025
fold-GAPDH, Hspa1a (Hspa1a mRNA relative to GAPDH, individual mice of EFL2 group (S401, S402, S404, S405)): 0.03203 and 0.003543 and 0.006228
fold-GAPDH, Hspd1 (Hspd1 mRNA relative to GAPDH, individual mice of EFL2 group (S401, S402, S404, S405)): 0.02796 and 0.02518 and 0.003019 and 0.01313
S40/SIA (fold change) (Hspd1 mRNA): 0.2339
log2(fold change) S40/SIA (Hspd1 mRNA): -2.096
fold-GAPDH, IRF5 (IRF5 mRNA in ankles of STA mice, relative to GAPDH, one value per animal (samples S401-S405)): 0.004631 and 0.004692 and 0.004033 and 0.001353
S40/SIA (fold change) (IRF5 mRNA): 0.3677
log2(fold change) S40/SIA (IRF5 mRNA): -1.443
fold-GAPDH, Ikbkb (Ikbkb mRNA relative to GAPDH, individual mice of EFL2 group (S401, S402, S404, S405)): 0.009029 and 0.01266 and 0.01025 and 0.004561
fold-GAPDH, Il1a (Il1a mRNA relative to GAPDH, individual mice of EFL2 group (S401, S402, S404, S405)): 0.0002392 and 0.0002831 and 9.48e-5
fold-GAPDH, Il1b (Il1b mRNA relative to GAPDH, individual mice of EFL2 group (S401, S402, S404, S405)): 0.005996 and 0.0009616 and 0.0008 and 0.0006699
S40/SIA (fold change) (Il1b mRNA): 0.0229
log2(fold change) S40/SIA (Il1b mRNA): -5.448
fold-GAPDH, Il6 (Il6 mRNA relative to GAPDH, individual mice of EFL2 group (S401, S402, S404, S405)): 0.002971 and 0.0008677 and 0.0003997 and 0.0006556
S40/SIA (fold change) (Il6 mRNA): 0.03478
log2(fold change) S40/SIA (Il6 mRNA): -4.845
fold-GAPDH, Il6ra (Il6ra mRNA in ankles of STA mice, relative to GAPDH, one value per animal (samples S401-S405)): 0.009397 and 0.01121 and 0.004741
fold-GAPDH, Il10 (Il10 mRNA relative to GAPDH, individual mice of EFL2 group (S401, S402, S404, S405)): 0.0001425 and 0.0002257 and 7.048e-5 and 9.932e-5
S40/SIA (fold change) (Il10 mRNA): 0.2443
log2(fold change) S40/SIA (Il10 mRNA): -2.033
fold-GAPDH, Il12a (Il12a mRNA relative to GAPDH, individual mice of EFL2 group (S401, S402, S404, S405)): 0.001377 and 0.0005874 and 0.0009712 and 0.0002213
fold-GAPDH, Ilr1 (Ilr1 mRNA in ankles of STA mice, relative to GAPDH, one value per animal (samples S401-S405)): 0.01383 and 0.01561 and 0.01023 and 0.00774
S40/SIA (fold change) (Ilr1 mRNA): 0.09556
log2(fold change) S40/SIA (Ilr1 mRNA): -3.388
fold-GAPDH, Irak1 (Irak1 mRNA in ankles of STA mice, relative to GAPDH, one value per animal (samples S401-S405)): 0.02263 and 0.02515 and 0.01545 and 0.008286
fold-GAPDH, Irak2 (Irak2 mRNA in ankles of STA mice, relative to GAPDH, one value per animal (samples S401-S405)): 0.003024 and 0.004831 and 0.004355 and 0.002516
